Test results as given in patent EP0932388B1, “DOSAGE FORM AND METHOD FOR ADM[…]” (ALZA CORPORATION, priority 1996, dated 1998).

Tested on: school children
Test: clinical study of methylphenidate release profiles (SKAMP and CLAM ratings, mathematics test, activity monitor)
Assay type: in vivo
Details: oral
Procedure: The CLAM Test is a behavior rating that indicates social conformity or rebellion as developed by Conners, Lonez, and Milch and SKAMP is a rating that also measures behavior as developed by Swanson and reported in Psychopharmacological Bulletin, Vol. 21, pp. 887-890 (1985).
The effect measurements in this study were: (1) observer ratings on SKAMP scale (during classroom time) and (2) performance on the computerized mathematics test. Each child was tested on the mathematics test before the study began, and based on this pre-test during the study, a mathematics test appropriate for each child's ability was given. The morning and evening parent CLAM assessments were used to identify unusual behaviors. The evening parent CLAM was used to determine the presence of treatment effects in the evening hours, particularly treatment effects on the time the child fell asleep, and whether the child's sleep was interrupted. All of the children also wore an activity monitor (Actigraph) which records the movements of the child throughout the day. The activity (number of movements per minute) is recorded electronically and modeled as a function of the drug effect.
The immediate release tablet and the sustained-release dosage form were compared to a sustained-release dosage form that administered methylphenidate in an ascending profile. The sustained-release ascending profile corresponds to administering 4.2 mg at zero hour, 1.1 mg at 1.5 hours, 1.1 mg at 2 hours, 1.2 mg at 2.5 hours, 1.2 mg at 3.0 hours, 1.3 mg at 3.5 hours, 1.3 mg at 4 hours, 1.5 mg at 4.5 hours, 1.5 mg at 5 hours, 1.8 mg at 5.5 hours, 1.8 mg at 6 hours, and 2.0 mg at 6.5 hours, to produce the sustained-ascending release dotted line profile seen in Figure 2.
The accompanying figures present the results of the above-described study. […]

## COC(=O)C(c1ccccc1)C1CCCCN1 (stereo not drawn) [methylphenidate]
controlled-sustained ascending profile of methylphenidate
  therapeutic effect and tolerance: desired therapeutic effect without tolerance
sustained-nonascending dose of methylphenidate (20 mg program)
  acute tolerance: development of acute tolerance
sustained-nonascending dose of methylphenidate (20 mg program), versus placebo
  behavior, activity and mathematical scores: a decrease in activity, higher mathematical scores and a lessening of inappropriate behavior
